What was measured:
[1] = Metabolic stability in rat liver microsomes (RLM); conditions: for RLM, metabolized or not (R / NR): last time point 120 min; for RLM, % (half-life as % vs. the related nondeuterated compound): values in square brackets are within 10% (assay's accuracy), no deuteration effect; for metabolic stability in RLM, in words: deuterated vs. comparator
hrMAO-A = target: T1, hrMAO-A (Homo sapiens, UniProt P21397); experiment: Metabolic stability in the presence of hrMAO-A; assay type: in vitro ADME; conditions: for MAO, metabolized or not (R / NR): last time point 120 min
T1 construct: purchased XenoTech Lot #8213001
T1 sequence (P21397 1-527): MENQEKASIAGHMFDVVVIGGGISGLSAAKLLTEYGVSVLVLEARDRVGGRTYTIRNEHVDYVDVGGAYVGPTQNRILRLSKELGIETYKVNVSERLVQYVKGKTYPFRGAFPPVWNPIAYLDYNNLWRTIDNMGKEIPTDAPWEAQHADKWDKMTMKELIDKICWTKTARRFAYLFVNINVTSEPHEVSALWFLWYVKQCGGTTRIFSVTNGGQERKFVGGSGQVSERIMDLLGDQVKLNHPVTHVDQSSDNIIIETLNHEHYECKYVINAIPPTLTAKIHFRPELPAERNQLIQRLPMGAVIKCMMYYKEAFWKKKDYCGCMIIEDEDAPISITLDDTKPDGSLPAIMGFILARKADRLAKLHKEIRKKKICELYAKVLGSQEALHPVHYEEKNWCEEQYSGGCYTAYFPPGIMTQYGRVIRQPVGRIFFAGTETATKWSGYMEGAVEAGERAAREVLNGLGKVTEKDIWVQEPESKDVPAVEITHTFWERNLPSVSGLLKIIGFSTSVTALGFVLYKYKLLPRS
Experimental: The reaction mixture was prepared as described below. The co-dosed TAs were added into the reaction mixture at a final concentration of 1 microM each. The positive control, kynuramine (25 microM), was run simultaneously with the TAs in a separate reaction. The reaction mixture (without TAs or kynuramine) was equilibrated in a shaking water bath at 37° C. for 5 minutes. The reaction was initiated by the addition of the TAs or kynuramine, and the mixture was incubated in a shaking water bath at 37° C. Aliquots (100 microL) of the TA reaction mixture were withdrawn at 0, 5, 10, 20, 30, 60, and 120 minutes. Aliquots (100 microL) of the positive control reaction mixture were withdrawn at 0 and 30 minutes. TA and kynuramine samples were immediately combined with 100 microL of ice-cold 100% MeCN containing 0.1% formic acid and IS to terminate the reaction. The samples were then mixed and centrifuged to precipitate proteins. All TA samples were assayed by LC-HRAMS. The PARR (analyte to IS) at each time point was compared to the PARR at time 0 to determine the percent remaining at each time point. Reaction composition: hrMAO 0.02 mg/mL; Potassium Phosphate, pH 7.4 100 mM; Magnesium Chloride 5 mM; Test Articles (each) 1 microM.

[2] = oral; cited from earlier work
[3] = Blood-to-plasma ratio (BPR), drug in brain and plasma of rats; assay type: in vivo; conditions: rat, % change vs. non-deuterated material
Experimental: (§1) The key PK parameters (presented as a % change vs. non-deuterated materials) are presented in Table 3 to include half-life (T1/2), area under the curve (AUC), bioavailability (F) and blood-to-plasma ration (BPR). Pharmacokinetics of the deuterated tryptamines was studied in rats. In a typical experiment, run as a cassette dosing, two groups of 5 Wistar female rats (200-250 g) with surgically inserted jugular vein catheter (Charles River, Andover, Mass.) were fasted for 12 h and then administered 5 mg/kg of the deuterated and 5 mg/kg of the related non-deuterated analog, by oral gavage or via a catheter for each group. At time points 0, 15, 30, 60 min, and 2, 4, 8, and 24 h, the resulting plasma was analyzed for the parent molecule using LC/MS spectroscopy. Two separate groups of 5 animals were used for determining blood-to-plasma ratio (BPR). Each group was sacrificed at time points 15 and 30 min, respectively, and the concentration of the parent drug was determined in the […] and plasma by LC/MS spectroscopy.

[4] = PK study in rats, cassette dosing, oral gavage or catheter; assay type: in vivo; conditions: rat, 5 mg/kg, % change vs. non-deuterated material; for Deuterium kinetic isotope effect (% change) F: bioavailability
Experimental: as §1

## C=CCN(CC=C)CCc1c[nH]c2ccccc12
[1]; RLM
  RLM, metabolized or not (R / NR): R

## C=CCNCCc1c[nH]c2ccccc12
[1]; RLM
  RLM, metabolized or not (R / NR): R

## [2H]C([2H])([2H])C([2H])([2H])NC([2H])([2H])C([2H])([2H])c1c[nH]c2cccc(O)c12
[1]; RLM
  RLM, % (half-life as % vs. the related nondeuterated compound): [93] %

## CCN(CC)CCc1c[nH]c2ccccc12
[1]; RLM
  RLM, metabolized or not (R / NR): R

## [2H]C([2H])(c1c[nH]c2ccc(OC)cc12)C([2H])([2H])N(CC)CC
[1]; RLM
  RLM, % (half-life as % vs. the related nondeuterated compound): [95] %

## CCN(CC)CCc1c[nH]c2ccc(OC)cc12
[1]; RLM
  RLM, metabolized or not (R / NR): R

## CCN(CC)CCc1c[nH]c2ccc(O)cc12
[1]; RLM
  RLM, metabolized or not (R / NR): R

## CCN(CC)CCc1c[nH]c2cccc(OC)c12
[1]; RLM
  RLM, metabolized or not (R / NR): R

## [2H]c1ccc2[nH]c([2H])c(CCN([2H])CC)c2c1O
[1]; RLM
  RLM, metabolized or not (R / NR): R

## [2H]C([2H])(NCC)C([2H])([2H])c1c[nH]c2ccccc12
hrMAO-A; MAO-A, values in square brackets are within 10% (assay's accuracy), no deuteration effect
  MAO, % (half-life as % vs. the related nondeuterated compound): 140%

## [2H]C([2H])(NCC)C([2H])([2H])c1c[nH]c2cccc(O)c12
[1]; RLM
  RLM, % (half-life as % vs. the related nondeuterated compound): [94] %

## CCNCCc1c[nH]c2cccc(O)c12
[1]; RLM
  RLM, metabolized or not (R / NR): R

## [2H]C([2H])(c1c[nH]c2cccc(OC)c12)C([2H])([2H])N(C)C
[1]; RLM
  RLM, % (half-life as % vs. the related nondeuterated compound): 190%

## [2H]C([2H])(NC)C([2H])([2H])c1c[nH]c2cccc(O)c12
[1]; RLM
  RLM, % (half-life as % vs. the related nondeuterated compound): 160%

## CC(C)NCCc1c[nH]c2ccccc12
[1]; RLM
  RLM, metabolized or not (R / NR): R

## CC(C)NCCc1c[nH]c2cccc(O)c12
[1]; RLM
  RLM, metabolized or not (R / NR): R

## [2H]C([2H])(c1c[nH]c2cccc(O)c12)C([2H])([2H])N(C(C)C)C(C)C
[1]; RLM
  RLM, % (half-life as % vs. the related nondeuterated compound): [97] %

## CC(C)N(CCc1c[nH]c2cccc(O)c12)C(C)C
[1]; RLM
  RLM, metabolized or not (R / NR): R

## COc1cc(CCNCc2ccccc2OC)c(OC)cc1Cl [2C-C-NBOMe, 2-(4-Chloro-2,5-dimethoxyphenyl)-N-[(2-methoxyphenyl)methyl]ethan-1-amine]
[2]
  orally active dose: ≥ 25 µg

## [2H]C([2H])(Cc1c[nH]c2ccc(OC)cc12)N(C)C [5-MeO-DMT-α,α-d2]
[3]
  Deuterium kinetic isotope effect (% change) BPR, 15 min: 120%
  Deuterium kinetic isotope effect (% change) BPR, 30 min: 180%
[4]
  Deuterium kinetic isotope effect (% change) AUC: 60%
  Deuterium kinetic isotope effect (% change) T1/2: 30%
  Deuterium kinetic isotope effect (% change) F: 200%

## CN(C)CCc1c[nH]c2ccccc12 [DMT, reference compound]
hrMAO-A; hrMAO-A, Table 3
  % Remaining of Initial 0 min: 100%
  Half-life: 0.453 h
[1]; RLM, Table 2
  % Remaining of Initial 0 min: 100%
[1]; RLM, 20 min, Table 2
  % Remaining of Initial 20 min: 41.0%

## [2H]C([2H])(Cc1c[nH]c2ccccc12)N(C)C [DMT-d2]
hrMAO-A; hrMAO-A, Table 3
  % Remaining of Initial 0 min: 100%
  Half-life: > 2 h
hrMAO-A; hrMAO-A, 60 min, Table 3
  % Remaining of Initial 60 min: 76.0%
[1]; RLM, Table 2
  % Remaining of Initial 0 min: 100%
[1]; RLM, 60 min, Table 2
  % Remaining of Initial 60 min: 32.0%

## [2H]C([2H])(c1c[nH]c2ccccc12)C([2H])([2H])N(C)C [DMT-d4]
hrMAO-A; hrMAO-A, Table 3
  % Remaining of Initial 0 min: 100%
  Half-life: > 2 h
[1]; RLM, Table 2
  % Remaining of Initial 0 min: 100%

## [2H]C([2H])([2H])N(C([2H])([2H])[2H])C([2H])([2H])C([2H])([2H])c1c[nH]c2ccccc12 [DMT-d10]
hrMAO-A
  metabolism in the MAO-A enzymatic assay, in words: superiority
hrMAO-A; hrMAO-A, Table 3
  % Remaining of Initial 0 min: 100%
  Half-life: > 2 h
hrMAO-A; hrMAO-A, Table 5 (d8 and d10 analogs)
  % Remaining of Initial 0 min: 100.0%
hrMAO-A; hrMAO-A, 5 min, Table 5
  % Remaining of Initial 5 min: 99.0%
hrMAO-A; hrMAO-A, Table 5
  Half-life: > 2 h
[1]; RLM, Table 2
  % Remaining of Initial 0 min: 100%
[1]; RLM, Table 4 (d8 and d10 analogs)
  % Remaining of Initial 0 min: 100%
[1]; RLM, 10 min, Table 4
  % Remaining of Initial 10 min: 56.0%
[1]
  metabolic stability in RLM, in words: Further enhancement of metabolic stability

## [2H]c1[nH]c2c([2H])c([2H])c([2H])c([2H])c2c1C([2H])([2H])C([2H])([2H])N(C([2H])([2H])[2H])C([2H])([2H])[2H] [DMT-d15]
[1]
  metabolic stability in RLM, in words: no improvement in half-life

## [2H]C([2H])(Cc1c[nH]c2cccc(O)c12)N(C)C [PI-α,α-d2]
[3]
  Deuterium kinetic isotope effect (% change) BPR, 15 min: 100%
  Deuterium kinetic isotope effect (% change) BPR, 30 min: 150%
[4]
  Deuterium kinetic isotope effect (% change) AUC: 75%
  Deuterium kinetic isotope effect (% change) T1/2: 50%
  Deuterium kinetic isotope effect (% change) F: 45%

## CCNCCc1c[nH]c2ccccc12 [reference compound]
hrMAO-A; MAO-A
  MAO, metabolized or not (R / NR): R
[1]; RLM
  RLM, metabolized or not (R / NR): R

## CCN(C)CCc1c[nH]c2ccccc12 [reference compound]
hrMAO-A; MAO-A
  MAO, metabolized or not (R / NR): R
[1]; RLM
  RLM, metabolized or not (R / NR): R

## CCN(C)CCc1c[nH]c2ccc(OC)cc12 [reference compound]
hrMAO-A; MAO-A
  MAO, metabolized or not (R / NR): R
[1]; RLM
  RLM, metabolized or not (R / NR): R

## CCN(C)CCc1c[nH]c2ccc(O)cc12 [reference compound]
hrMAO-A; MAO-A
  MAO, metabolized or not (R / NR): R
[1]; RLM
  RLM, metabolized or not (R / NR): R

## CCN(C)CCc1c[nH]c2cccc(OC)c12 [reference compound]
hrMAO-A; MAO-A
  MAO, metabolized or not (R / NR): R
[1]; RLM
  RLM, metabolized or not (R / NR): R

## COc1ccc2[nH]cc(CCN(C)C)c2c1 [reference compound]
hrMAO-A; MAO-A
  MAO, metabolized or not (R / NR): R
[1]; RLM
  RLM, metabolized or not (R / NR): R

## CN(C)CCc1c[nH]c2ccc(O)cc12 [reference compound]
hrMAO-A; MAO-A
  MAO, metabolized or not (R / NR): R
[1]; RLM
  RLM, metabolized or not (R / NR): R

## COc1cccc2[nH]cc(CCN(C)C)c12 [reference compound]
hrMAO-A; MAO-A
  MAO, metabolized or not (R / NR): R
[1]; RLM
  RLM, metabolized or not (R / NR): R

## CNCCc1c[nH]c2ccccc12 [reference compound]
hrMAO-A; MAO-A
  MAO, metabolized or not (R / NR): R
[1]; RLM
  RLM, metabolized or not (R / NR): R

## CNCCc1c[nH]c2cccc(O)c12 [reference compound]
hrMAO-A; MAO-A
  MAO, metabolized or not (R / NR): R
[1]; RLM
  RLM, metabolized or not (R / NR): R
